Reference: patent US9517228B2, “Cannabinoid receptor antagonists/inverse agonists useful for treating metabolic disorders, including obesity and diabetes” (Jenrin Discovery, priority 2012, dated 2016)

Tests used:
CB1R = CB1R (Mus musculus (Mouse), UniProt P47746); assay: CB1R competition displacement binding with [3H]CP-55,940; details: [3H]CP-55,940 radioligand, crude membranes from mouse brain, triplicates; read-out: CB1 IC50
Procedure: Compound binding to CB1R was assessed in competition displacement assays using [3H]CP-55,940 as the radioligand and crude membranes from mouse brain. See Tam, J., Vemuri, V. K., Liu, J., Batkai, S., Mukhopadhyay, B., Godlewski, G., Osei-Hyiaman, D., Ohnuma, S., Ambudkar, S. V., Pickel, J., et al., J. Clin. Invest. 2010, 120, 2953-2966. All data were in triplicates with Ki values determined from three independent experiments.

[1] = type 2 diabetes patients not on other anti-diabetic medications, six months of treatment, baseline value 7.9; cited from earlier work

Sequence of CB1R (P47746 whole entry): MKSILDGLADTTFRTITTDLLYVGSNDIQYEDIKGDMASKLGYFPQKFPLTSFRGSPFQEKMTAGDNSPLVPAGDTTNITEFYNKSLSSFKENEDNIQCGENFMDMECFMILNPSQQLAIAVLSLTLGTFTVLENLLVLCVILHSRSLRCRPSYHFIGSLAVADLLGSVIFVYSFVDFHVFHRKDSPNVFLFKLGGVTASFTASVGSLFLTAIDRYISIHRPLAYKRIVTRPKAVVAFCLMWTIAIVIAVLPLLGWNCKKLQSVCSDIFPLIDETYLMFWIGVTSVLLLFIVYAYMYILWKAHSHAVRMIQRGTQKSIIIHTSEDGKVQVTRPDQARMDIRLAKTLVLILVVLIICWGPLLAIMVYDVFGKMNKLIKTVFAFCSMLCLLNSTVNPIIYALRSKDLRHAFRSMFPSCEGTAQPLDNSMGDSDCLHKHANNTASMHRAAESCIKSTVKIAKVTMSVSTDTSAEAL

Row | SMILES | IC50 (CB1R) [µM] | HbA1c levels lowered [1] [%]
1 | NC(=O)CN/C(=N\S(=O)(=O)c1ccc(Cl)cc1)N1C[C@H](c2ccccc2)C(c2ccc(Cl)cc2)=N1 [Example 1] | < 0.1 | 
2 | NC(=O)CN/C(=N\S(=O)(=O)c1ccc(Cl)cc1)N1C[C@@H](c2ccccc2)C(c2ccc(Cl)cc2)=N1 [Example 1a] | > 1 | 
3 | C[C@@H](O)[C@H](N/C(=N\S(=O)(=O)c1ccc(Cl)cc1)N1C[C@H](c2ccccc2)C(c2ccc(Cl)cc2)=N1)C(N)=O [Example 2, (2S,3R)-2-((S)-3-(4-chlorophenyl)-N′-((4-chlorophenyl)sulfonyl)-4-phenyl-4,5-dihydro-1H-pyrazole-1-carboximidamido)-3-hydroxybutanamide] | < 0.1 | 
4 | NC(=O)[C@H](CO)N/C(=N\S(=O)(=O)c1ccc(Cl)cc1)N1C[C@H](c2ccccc2)C(c2ccc(Cl)cc2)=N1 [Example 3] | < 0.1 | 
5 | NC(=O)[C@H](CO)N/C(=N\S(=O)(=O)c1ccc(Cl)cc1)N1C[C@@H](c2ccccc2)C(c2ccc(Cl)cc2)=N1 [Example 3a] | 0.5 to 1 | 
6 | Cc1c(C(=O)NN2CCCCC2)nn(-c2ccc(Cl)cc2Cl)c1-c1ccc(Cl)cc1 [rimonabant] |  | 0.8

Continued, in another order:

Row | IC50 (CB1R) [µM] | SMILES | HbA1c levels lowered [1] [%]
7 | > 1 | C[C@@H](O)[C@H](N/C(=N\S(=O)(=O)c1ccc(Cl)cc1)N1C[C@@H](c2ccccc2)C(c2ccc(Cl)cc2)=N1)C(N)=O [Example 2a, (2S,3R)-2-((R)-3-(4-chlorophenyl)-N′-((4-chlorophenyl)sulfonyl)-4-phenyl-4,5-dihydro-1H-pyrazole-1-carboximidamido)-3-hydroxybutanamide] | 
8 | < 0.1 | CC(C)[C@H](N/C(=N\S(=O)(=O)c1ccc(Cl)cc1)N1C[C@H](c2ccccc2)C(c2ccc(Cl)cc2)=N1)C(N)=O [Example 4] | 
9 | > 1 | CC(C)[C@H](N/C(=N\S(=O)(=O)c1ccc(Cl)cc1)N1C[C@@H](c2ccccc2)C(c2ccc(Cl)cc2)=N1)C(N)=O [Example 4a] | 
